From patent EP0454060B1, “3-(Mercaptoalkyl)-quinazoline-2,4(1H,3H)-diones, processes for their preparation, and pharmaceutical compositions” (priority 1990, dated 1991) come the findings set out here.

The first test deals with Kontaktüberempfindlichkeit vom verzögerten Typ (Effektor-T-Lymphozyten-Aktivität). Briefly: Percutaneous test for contact hypersensitivity after DNFB immunisation. It counts as in vivo, Meerschweinchen (Albino-Koloniezucht). The settings on record: Sensibilisierungsgrad versus control group; 2 mg/kg daily peroral, day +1 to +6; screening values; from 120 stimulatory, below 80 suppressive. The source says: Der Nachweis einer immunregulatorischen Wirksamkeit wurde am Meerschweinchen (Albino-Koloniezucht) und u. a. mit Hilfe folgender Techniken geführt: • Perkutaner Test zum Nachweis einer Kontaktüberempfindlichkeit vom verzögerten Typ (Effektor-T-Lymphozyten-Aktivität), • Takatsy-Test zum Nachweis DNP-spezifischer Serumantikörper (humorale Immunantwort).
Der Nachweis der antiviralen Wirksamkeit erfolgte in vitro an Hühnerembryonalzellen mit Vertretern verschiedener Virusgruppen. 1. Untersuchungen zur immunregulatorischen Wirksamkeit 1.1 Perkutaner Test zum Nachweis einer Kontaktüberempfindlichkeit Die epikutane Applikation von Dinitrofluorbenzol (DNFB) führt beim Meerschweinchen und bei der Maus zur Entwicklung einer verzögerten Überempfindlichkeit, eines Immunstatus, der an die klonale Vermehrung TNP-spezifischer T-Lymphozyten (TDTH-Ly) gebunden ist. Erfolgt nach einer Latenzperiode von mindestens 5 Tagen eine erneute DNFB-Applikation, kommt es zu einer Freisetzung von Lymphokinen durch Reaktion mit den TDTH-Ly dieses Hautbereiches und dadurch zu einer lokal begrenzten Entzündungsreaktion. Sieben Tage nach der Immunisierung mit 1 %igem DNFB wurden die Flanken der Versuchstiere enthaart und durch Aufbringen je eines Tropfens 0,5 %, 0,1 %, 0,05 %, 0,025 % und 0,01 %iger DNFB-Lösung getestet. Die noch positive Konzentration ist dem Grad der Sensibilisierung umgekehrt proportional. Die Testergebnisse ergeben sich aus Stärke und Anzahl der positiven Hautreaktionen, der Stimulierungsindex (SI) aus dem Vergleich der Test- und Kontrolltiere. Die Substanzbehandlung erfolgte peroral. Mittels Schlundsonde wurde eine tägliche Dosis von 2 mg/kg Körpermasse als Suspension in Wasser gegeben. Behandlungsdauer: 1 Tag + 1 (ein Tag nach der Immunisierung) bis +6. Die Kontrolltiere erhielten nur die eingesetzte Lactose. 1.2 Takatsy-Test Nach Immunisierung mit Dinitrofluorbenzol (DNFB) kommt es beim Meerschweinchen auch zur Bildung DNP-spezifischer humoraler Antikörper, die bevorzugt der IgG1-Substanzklasse angehören. 14 Tage nach primärer epikutaner Applikation von DNFB wurde den Versuchstieren Blut durch Herzpunktion entnommen. Die Bestimmung der Antikörperkonzentration erfolgte nach einer von Takatsy beschriebenen Methode (Takatsy, G.: A new method for the preparation of serial dilutions in a quick and accurate way. Kiserletes Orvostudomany 2 (1950) 263 - 396). Als Indikatorzellen wurden TNP-beladene Schaferythrozyten verwendet (Kopplung nach Rittenberg und Pratt; Rittenberg, M. B. and Pratt, K. L.: Antitrinitrophenyl (TNP) plaque assay. Primary response of BALB/c mice to soluble and particulate immunogen. Proc. Soc. exp. Biol. Med., 132 (1969) 575 - 579). 1.3 Ergebnisse Sensibilisierungsgrad (%) und Serumantikörperkonzentration (AK-Titer-Differenz) gegenüber der jeweiligen Kontrollgruppe (Screening-Werte)
Aus den Werten wird deutlich, daß die Verbindungen der allgemeinen Formel I einen gut nachweisbaren Effekt auf die Effektor-T-Lymphozyten-abhängige verzögerte Uberempfindlichkeit haben. Kontaktdermatitis-Werte ab 120 (≙ 20 % Steigerung gegenüber der Kontrolle) bzw. unter 80 werden als Nachweis eines stimulatorischen bzw. suppressorischen Effektes angesehen. Antikörpertiter-Differenzen von >+1 bzw. <-1 verdeutlichen den stimulatorischen bzw. suppressorischen Effekt der Substanzen auf die humorale Immunantwort. 2. Untersuchungen zur immunstimulierenden Wirkung • 2.1 Plaque-Test zum Nachweis von SE-spezifischen IgM- und IgG-PBZ Zur Prüfung immunstimulierender Effekte wurde u. a. auch der Einfluß von Verbindungen der allgemeinen Formel I auf die humorale Immunantwort an Mäusen des Inzuchtstammes CBA und mittels Hämolyse-Plaque-Test (HPT) untersucht. Diese Technik erlaubt die quantitative und getrennte Erfassung IgM- und IgG-Antikörper produzierender Zellen (= Plaque bildende Zellen; PBZ). […]
Take `COc1cc2[nH]c(=O)n(CCS)c(=O)c2cc1OC` [Beispiel 3, 3-(2-Mercaptoethyl)-6,7-dimethoxychinazolin-2,4(1H,3H)-dion]: the “Kontaktdermatitis (Kontrolle: 100) 24-Stunden-Reaktion” value is reported as 100%.

Consider `O=c1[nH]c2ccc(Br)cc2c(=O)n1CCS` [Beispiel 5, 6-Brom-3-(2-mercaptoethyl)-chinazolin-2,4(1H,3H)-dion], for which the “Kontaktdermatitis (Kontrolle: 100) 24-Stunden-Reaktion” value stood at 150% and the “Kontaktdermatitis (Kontrolle: 100) 48-Stunden-Reaktion” value is listed as 120%.

Regarding `O=c1[nH]c2ccccc2c(=O)n1CCCS` [Beispiel 6, 3-(3-Mercaptopropyl)-chinazolin-2,4(1H,3H)-dion], the “Kontaktdermatitis (Kontrolle: 100) 24-Stunden-Reaktion” value is 70% and the “Kontaktdermatitis (Kontrolle: 100) 48-Stunden-Reaktion” value turned out to be 40%. As to `CC(S)Cn1c(=O)[nH]c2ccccc2c1=O` (centres unmarked) [Beispiel 7, 3-(2-Mercaptopropyl)-chinazolin-2,4(1H,3H)-dion], the “Kontaktdermatitis (Kontrolle: 100) 24-Stunden-Reaktion” value is 230%.

In the case of `O=c1[nH]c2ccc(Cl)cc2c(=O)n1CCCS` [Beispiel 8, 6-Chlor-3-(3-mercaptopropyl)-chinazolin-2,4(1H,3H)-dion], the “Kontaktdermatitis (Kontrolle: 100) 24-Stunden-Reaktion” value was found to be 100% and the “Kontaktdermatitis (Kontrolle: 100) 48-Stunden-Reaktion” value was found to be 115%. Taken in the same sequence, the figures for `Cc1ccc2[nH]c(=O)n(CCCS)c(=O)c2c1` [Beispiel 12, 6-Methyl-3-(3-mercaptopropyl)-chinazolin-2,4(1H,3H)-dion] were 120% and 130%. Taken in the same sequence, the figures for `O=c1[nH]c2ccc(Cl)cc2c(=O)n1CCS` [Beispiel 13, 6-Chlor-3-(2-mercaptoethyl)-chinazolin-2,4(1H,3H)-dion] were 120% and 130%. Taken in the same sequence, the figures for `Cc1ccc2[nH]c(=O)n(CCS)c(=O)c2c1` [Beispiel 14a, 6-Methyl-3-(2-mercaptoethyl)-chinazolin-2,4(1H,3H)-dion] were 60% and 60%. Turning to `O=c1[nH]c2ccc(Br)cc2c(=O)n1CCCS` [Beispiel 14b, 6-Brom-3-(3-mercaptopropyl)-chinazolin-2 4(1H 3H)-dion], the “Kontaktdermatitis (Kontrolle: 100) 24-Stunden-Reaktion” value stood at 105% and the “Kontaktdermatitis (Kontrolle: 100) 48-Stunden-Reaktion” value amounted to 100%. The matching figures for `O=c1[nH]c2ccc(F)cc2c(=O)n1CCS` [Beispiel 14c, 6-Fluor-3-(2-mercaptoethyl)-chinazolin-2,4(1H 3H)-dion]: 90% and 105%. The matching figures for `O=c1[nH]c2ccc(F)cc2c(=O)n1CCCS` [Beispiel 14d, 6-Fluor-3-(3-mercaptopropyl)-chinazolin-2,4(1H,3H)-dion]: 100% and 150%. As for `COc1cc2[nH]c(=O)n(CC(C)S)c(=O)c2cc1OC` (centres unmarked) [Beispiel 14e, 6,7-Dimethoxy-3-(2-mercaptopropyl)-chinazolin-2,4(1H,3H)-dion], the “Kontaktdermatitis (Kontrolle: 100) 24-Stunden-Reaktion” value came out at 100%.

In another test the test system is SE-spezifischer rosettenbildender Zellen. Put plainly: Rosette test (SE-specific rosettes). It counts as in vivo, Maus (Inzuchtstamm CBA). The settings on record: oral administration. The text has this:
Der Nachweis immunstimulierender Effekte wurde weiterhin an der Maus (Inzuchtstamm CBA) und u. a. mit Hilfe folgender Nachweismethoden geführt: • Plaque-Test zum Nachweis von SE-spezifischen IgM- und IgG-PBZ, • Rosettentest.
Aus den Werten wird deutlich, daß die Verbindungen der allgemeinen Formel I einen gut nachweisbaren Effekt auf die Effektor-T-Lymphozyten-abhängige verzögerte Uberempfindlichkeit haben. Kontaktdermatitis-Werte ab 120 (≙ 20 % Steigerung gegenüber der Kontrolle) bzw. unter 80 werden als Nachweis eines stimulatorischen bzw. suppressorischen Effektes angesehen. Antikörpertiter-Differenzen von >+1 bzw. <-1 verdeutlichen den stimulatorischen bzw. suppressorischen Effekt der Substanzen auf die humorale Immunantwort. 2. Untersuchungen zur immunstimulierenden Wirkung • 2.1 Plaque-Test zum Nachweis von SE-spezifischen IgM- und IgG-PBZ Zur Prüfung immunstimulierender Effekte wurde u. a. auch der Einfluß von Verbindungen der allgemeinen Formel I auf die humorale Immunantwort an Mäusen des Inzuchtstammes CBA und mittels Hämolyse-Plaque-Test (HPT) untersucht. Diese Technik erlaubt die quantitative und getrennte Erfassung IgM- und IgG-Antikörper produzierender Zellen (= Plaque bildende Zellen; PBZ). Die Immunisierung mit Schaferythrozyten (SE) erfolgte am Tag 0, die Substanzapplikation (Tagesdosis 1.10^-5 mol/kg Körpermasse; peroral) an den Tagen -1 bis +3 (zur Erfassung der IgM-PBZ) bzw. an den Tagen +1 bis +5 (zur Erfassung der IgG-PBZ). • 2.2 Ergebnisse: Durch tägliche und über 5 Tage gehende Gabe von 2,0 mg der Verbindung gemäß Beispiel 1 pro kg Körpermasse konnte die Zahl der IgM-PBZ auf einen Durchschnittswert von 352 % im Vergleich zur Kontrolle (100 %) gesteigert werden. Die gleiche Form der Behandlung führte zu einer Erhöhung der IgG-PBZ auf 497 % (Kontrolle: 100 %). In beiden Fällen erwies sich die Differenz zur Kontrolle im t-Test mit p < 0,001 als signifikant. […]
For `O=c1[nH]c2ccccc2c(=O)n1CCCS` [Beispiel 6, 3-(3-Mercaptopropyl)-chinazolin-2,4(1H,3H)-dion], the “SE-spezifischer rosettenbildender Zellen” value was “signifikante Förderung”. The same measure, in the same setting: the same measure for `COc1cc2[nH]c(=O)n(CC(C)S)c(=O)c2cc1OC` (centres unmarked) [Beispiel 14e, 6,7-Dimethoxy-3-(2-mercaptopropyl)-chinazolin-2,4(1H,3H)-dion]: “signifikante Förderung”.
